In patent US20110053777A1, “Resistance to Acetolactate Synthase-Inhibiting Herbicides” (priority 2006, published 2011):

Legend:
[1] = system: C. tinctoria ALS allele with mutations at both Pro197 and Trp574; assay: Herbicide resistance imparted by the double-mutant ALS allele; design: species or system Coreopsis tinctoria; settings: for Pre-emergence and/or post-emergence resistance to herbicide: novel allele with two point mutations; for Resistance of the clone with mutations at both Pro197 and Trp574: resistant clone with both mutations
[2] = system: susceptible C. tinctoria plants; assay: Greenhouse herbicide spray test, susceptible plants; assay type: in vivo; settings: SM 8 oz. a.i./A, IM 2 oz. a.i./A
Protocol: (§1) Response of resistant and susceptible C. tinctoria to imidazolinone and sulfonylurea herbicides treatments: Both wild-type and mutant strains of C. tinctoria were planted in the greenhouse with ˜100 seeds per pot. Individual plants were transplanted to separate pots after seven weeks. The greenhouse regime comprised natural light with temperatures of 25 to 30° C. during the day and 15 to 20° C. at night. The experimental setup was a completely randomized design with five treatments and six plants (replications) per treatment for both wild-type and mutant strains. The five treatments were Arsenal (imazapyr), Oust (sulfometuron methyl), Arsenal+Oust sequential, Oust+Arsenal sequential, and control (no herbicide). […] to individual mutant or susceptible, […], with 12 plants per each herbicide treatment for both wild-type and mutants. Ten days later, the same rate of Oust was sprayed on six plants that had previously been treated with Arsenal, and the same rate of Arsenal was sprayed on six plants that had previously been treated with Oust, for both wild-type and mutants. […]
The range of herbicide injury ratings for the sprayed susceptible plants was 3.3 to 4.8, with essentially no injury for the unsprayed controls.

[3] = target: T1, AHAS enzyme from CL161 rice (Oryza sativa subsp. japonica, UniProt Q6K2E8, S627N); assay: ALS enzyme assay, CL161 rice versus CCDR rice; assay type: biochemical
T1 construct: from tissue; host or cells: leaves of CL161 rice plants; crude ammonium sulfate fraction
T1 sequence (Q6K2E8 44-644 S627N): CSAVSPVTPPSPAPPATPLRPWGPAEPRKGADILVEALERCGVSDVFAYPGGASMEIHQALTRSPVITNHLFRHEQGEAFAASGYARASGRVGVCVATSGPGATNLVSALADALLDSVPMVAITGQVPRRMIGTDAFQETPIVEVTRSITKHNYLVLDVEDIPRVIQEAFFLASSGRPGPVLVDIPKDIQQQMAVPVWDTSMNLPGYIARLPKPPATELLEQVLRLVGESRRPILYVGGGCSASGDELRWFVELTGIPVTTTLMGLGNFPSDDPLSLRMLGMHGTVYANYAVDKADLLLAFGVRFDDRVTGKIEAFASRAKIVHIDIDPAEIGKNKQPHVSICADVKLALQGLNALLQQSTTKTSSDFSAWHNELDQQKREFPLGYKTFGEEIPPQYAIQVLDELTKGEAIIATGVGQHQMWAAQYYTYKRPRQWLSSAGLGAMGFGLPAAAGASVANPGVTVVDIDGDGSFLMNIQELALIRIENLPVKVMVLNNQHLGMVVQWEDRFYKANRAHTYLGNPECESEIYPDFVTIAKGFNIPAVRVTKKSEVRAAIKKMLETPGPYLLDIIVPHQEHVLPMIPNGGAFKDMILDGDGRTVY
Source text: (§2) ALS enzyme Assay: An ALS enzyme assay was used to determine if resistance in the mutants was due to the ALS enzyme itself in the mutant plants. A modification was used of the colorimetric method of Singh B. K., Stidham M. A., and Shaner D. L. 1988. Assay of acetohydroxyacid synthase. Analytical Biochemistry 171:173-179. Rice plants were used as controls. Sulfometuron methyl (Oust), chlorsulfuron (Glean), and imazapyr (Arsenal) were used as ALS inhibitors. Briefly, 10 grams of young leaves pooled from either mutant plants or from susceptible plants were ground to a powder in liquid nitrogen, and mixed with 50 ml of extraction buffer containing 100 mM K2HPO4 (pH 7.5), 10 mM sodium pyruvate, 5 mM EDTA, 1 mM valine, 1 mM leucine, 10 mM cysteine, 0.1 mM flavin adenine dinucleotide, 5 mM MgCl2, 10% (v/v) glycerol, and 1% (w/v) polyvinylpyrrolidone. The homogenate was filtered through eight layers of cheesecloth and centrifuged at 25,000 g at 4° C. for 20 min. The supernatant was brought to 50% saturation with (NH4)2SO4 by adding an equal volume of 100% saturated extraction buffer, and was then allowed to stand for 20-30 min on ice. The resulting solution was centrifuged at 25,000 g at 4° C. for another 20 min. The pellet was dissolved in 10 ml resuspension buffer containing 100 mM K2HPO4 (pH7.5), 1 mM EDTA, 100 mM NaCl, and 10% (v/v) glycerol. Bradford Reagent (SIGMA, Saint Louis, Mo., USA) was used to determine the concentration of total protein in solution; and resuspension buffer was used to adjust the concentrations of total protein from wild- and mutant-type of C. tinctoria to the same level.
(§3) ALS activity was measured by mixing 1.5 ml of assay buffer, containing 100 mM K2HPO4 (pH 7.0), 10 mM MgCl2, 100 mM sodium pyruvate, 1 mM thiamine pyrophosphate, 0.1 mM flavin adenine dinucleotide, and 0.5 mL of the ALS extract, with varying amounts of herbicide (0.0.1, 1, 10, 100, 1000 μM). The mixture was then incubated at 37° C. for 1 h. […] The mixtures were then centrifuged at 12,000 g for 10 min, and absorbance was measured at 530 nm with a Spectrophotometer 690.

[4] = system: resistant C. tinctoria plants; assay: Greenhouse herbicide spray test, resistant plants; assay type: in vivo
Protocol: as §1
Plant height in resistant plants was not affected when sprayed with […] or imazapyr, as compared to the unsprayed resistant controls. […] It appeared that the imazapyr+sulfosulfuron methyl treatment stimulated growth in the resistant plants, an observation that will be confirmed in follow-up experiments. Various strains or genotypes of C. tinctoria were used in this study, so a direct evaluation of herbicide on plant height should be viewed with caution. […] Herbicide injury ratings for the resistant plants ranged from 0.5 to 1.2 (Table 2).

[5] = system: ALS enzyme from the resistant C. tinctoria mutants; assay: ALS enzyme assay, C. tinctoria mutant versus susceptible; assay type: biochemical
Source text: as §2, §3

[6] = system: susceptible transplants from Idlewild; assay: Transplanting trial, susceptible transplants; assay type: in vivo, Coreopsis tinctoria; settings: applied 2 weeks after transplant, ratings 2 and 4 weeks after application
Protocol: A transplanting trial was also conducted in May at the Idlewild Research Station. Five-inch diameter divots of plants were collected at both the Chase and Idlewild sites. Divots were transplanted to a location at Idlewild which had had no previous Coreopsis crop. Divots were transplanted in a paired arrangement on 36 inch centers. Oust, Plateau and Outrider were applied at various rates 2 weeks after transplant. The trial used a randomized complete block design with 3 replications. Visual injury and height ratings were taken 2 and 4 weeks after application. Injury to the susceptible transplants from Idlewild ranged from a high of 100% at all rates of Oust to a low of 60% with the 0.06 pound ai/A rate of Outrider. No injury was observed, nor any height differences noted in any application made to the resistant transplants from the Chase site.

[7] = system: seed from Chase (herbicide-resistant Coreopsis); assay: Field planting sprayed with Oust, seed from Chase; assay type: in vivo, Coreopsis tinctoria
Source text: (§4) Seed were harvested from mature Coreopsis with a combine from plantings both inside and outside the herbicide treated areas at the Idlewild Research Station in Clinton, La. Seed were also harvested with a combine from the roadside area near Chase, La. Putative herbicide-resistant seed from the Chase location, and putative herbicide-sensitive seed from the Idlewild Research Station were separately cleaned and stored in a climate-controlled seed storage facility.
(§5) Seed samples from both seed sources were planted in March at the Idlewild Research Station using a small grain drill, at a 2 pound per acre seeding rate. Area one contained both control seed grown the previous season at the Idlewild Research Station, and seed obtained from the Chase, La. site. A second area was planted in March exclusively with seed from Chase, La. A third area was planted in April with seed from Chase, La.
(§6) A single application of Oust at 0.07 pounds ai/A was applied in mid-May to half of the first and third plantings and to all of the second planting.

[8] = system: Idlewild-grown control seed (herbicide-sensitive Coreopsis); assay: Field planting sprayed with Oust, Idlewild-grown control seed; assay type: in vivo, Coreopsis tinctoria; settings: single application of Oust at 0.07 pounds ai/A
Source text: as §4, §5, §6

susceptible Coreopsis = assay: Field trial of ALS-inhibiting herbicides on F1 plants, commercial control seed; assay type: in vivo, Coreopsis tinctoria; settings: Oust applied at 0.07 pounds ai/A, ratings taken at 23 and 49 days after application
Protocol: To confirm herbicide resistance, and to characterize herbicide resistance profiles, seeds from the roadside-harvested, putatively-resistant Coreopsis were harvested (F0) and planted in a field in a separate location from the original roadside stand. The resulting F0 plants were not subjected to herbicide treatment. F1 seeds were harvested from the F0 plants, and the F1 seeds were planted in a field in several blocks and replicates. The resulting F1 plants were treated with various AHAS-inhibiting herbicides.
Commercial Coreopsis tinctoria seed were obtained as controls from two commercial nurseries. The commercially-obtained seed and the experimental seed were planted with a small grain drill at a seeding rate of 2 pounds per acre. Three months later, herbicides were applied to the F1 plants at different rates in a randomized complete block design with three replications. The ALS-inhibiting herbicides used in this trial were sulfometuron methyl (trade name Oust™); imazapic (trade name Plateau™); sulfosulfuron, 1-(2-ethylsulfonylimidazo[1,2a]pyridin-3-ylsulfonyl)-3-(4,6-dimethoxypyrimidin-2-yl) urea (trade name Outrider™); and DPX 6447.
Percent injury ratings were taken at 23 and 49 days after herbicide application. All herbicide treatments injured the susceptible Coreopsis. […]

[9] = sequential sprays March 3 and March 13, 25 days after treatment
[10] = SM 8 oz. a.i./A, IM 2 oz. a.i./A, sequential sprays March 3 and March 13

Q: `Cc1cnc(C2=NC(C)(C(C)C)C(=O)N2)c(C(=O)O)c1` (racemic) [imazapic, (±)-2-[4,5-dihydro-4-methyl-4-(1-methyl-ethyl)-5-oxo-1H-imidazol-2-yl]-5-methyl-3-pyridinecarboxylic acid] was tested. Which “Pre-emergence and/or post-emergence resistance to herbicide” value [1] did it give?
A: Its value is “Resistance has been demonstrated”.

Q: `CC(C)C1(C)N=C(c2ncccc2C(=O)O)NC1=O` (centres unmarked) [Arsenal, 2-[4,5-dihydro-4-methyl-4-(1-methylethyl)-5-oxo-1H-imidazol-2-yl]-3-pyridinecarboxylic acid] was tested. Which “% height reduction compared to no spray control” value [2, 9] did it give?
A: Its value is 80%.

Q: And the “Plant height (cm)” value [2, 9]?
A: Its value is 11.0 cm.

Q: And the Injury rating ([2]; scale 0 = no injury, 10 = dead plant)?
A: Its Injury rating is 3.5.

Q: What about the “Pre-emergence and/or post-emergence resistance to herbicide” value [1] of the same molecule?
A: Its value is “Resistance has been demonstrated”.

Q: What about the “Resistance of the clone with mutations at both Pro197 and Trp574” value (“Resistance of the clone with mutations” below) [1] of the same molecule?
A: Its value is “strong resistance”.

Q: What about the “Tolerance of CL161 rice enzyme compared to control” value ([3]; Arsenal at 10 μM, FIG. 1b) of the same molecule?
A: The value was less than 2 fold.

Q: And the “Plant height compared to the unsprayed resistant controls (in words)” value [4]?
A: The value was “not affected”.

Q: And the “% height reduction compared to no spray control” value [4, 10]?
A: Its value is 0%.

Q: What about the “Plant height (cm)” value [4, 10] of the same molecule?
A: Its value is 9.2 cm.

Q: What about the Injury rating ([4]; scale 0 = no injury, 10 = dead plant, SM 8 oz. a.i./A, IM 2 oz. a.i./A) of the same molecule?
A: Its Injury rating is 0.7.

Q: What about the “Tolerance of mutant ALS enzyme compared to susceptible variety” value ([5]; Arsenal at 10 to 100 μM, FIG. 1a) of the same molecule?
A: The value was roughly 2.5 fold.

Q: Which “Resistance of the clone with mutations” value [1] does the source give for `COc1nc(C)nc(NC(=O)NS(=O)(=O)c2ccccc2Cl)n1` [Glean, 2-chloro-N-[(4-methoxy-6-methyl-1,3,5-triazin-2-yl)aminocarbonyl]benzenesulfonamide] here?
A: Its value is “strong resistance”.

Q: And the “Tolerance of CL161 rice AHAS compared to control” value ([3]; Glean at 1 μM, FIG. 1d)?
A: The value was less than 1 fold.

Q: And the “Tolerance of mutant AHAS compared to susceptible control” value ([5]; Glean at 1 to 10 μM, FIG. 1c)?
A: Its value is roughly 4.5 fold.

Q: For `COC(=O)c1ccccc1S(=O)(=O)NC(=O)Nc1nc(C)cc(C)n1` [Oust, 2-[[[[(4,6-dimethyl-2-pyrimidinyl)amino]carbonyl]amino]sulfonyl]benzoic acid methyl ester], which Visual injury ([6]; all rates of Oust) is on record?
A: Its Visual injury is 100%.

Q: What about the “Pre-emergence and/or post-emergence resistance to herbicide” value [1] of the same molecule?
A: Its value is “Resistance has been demonstrated”.

Q: And the “Resistance of the clone with mutations” value [1]?
A: Its value is “strong resistance”.

Q: What about the “effect of second application” value ([7]; second application of Oust at 0.14 pounds ai/A) of the same molecule?
A: Its value is “no noticeable effect”.

Q: What about the injury rate ([7]; single application of Oust at 0.07 pounds ai/A) of the same molecule?
A: The injury rate was “less than 1%”.

Q: What about the “Tolerance of CL161 rice compared to susceptible variety CCDR (in words)” value ([3]; 100 μM of Oust, FIG. 1f) of the same molecule?
A: The value was “significantly greater tolerance”.

Q: And the injury rate [8]?
A: Its injury rate is 98%.

Q: What about the Percent injury rating (susceptible Coreopsis) of the same molecule?
A: Its Percent injury rating is 98%.

Q: What about the “Tolerance of mutant ALS compared to susceptible control (in words)” value ([5]; Oust, FIG. 1e) of the same molecule?
A: The value was “more tolerant than the susceptible control for Oust herbicide (sulfometuron methyl) (FIG. 1e), although the difference was not significant”.

Q: What does the source list for `CCS(=O)(=O)c1nc2ccccn2c1S(=O)(=O)NC(=O)Nc1nc(OC)cc(OC)n1` [Outrider, 1-(2-ethylsulfonylimidazo[1,2a]pyridin-3-ylsulfonyl)-3-(4,6-dimethoxypyrimidin-2-yl) urea]?
A: Visual injury ([6]; 0.06 pound ai/A rate of Outrider): 60%; Pre-emergence and/or post-emergence resistance to herbicide [1]: Resistance has been demonstrated

Q: With `COc1cc(OC)nc(NC(=O)NS(=O)(=O)c2ncccc2C(F)(F)F)n1` [flazasulfuron] as the molecule, how does the “Pre-emergence and/or post-emergence resistance to herbicide” value [1] read?
A: Its value is “Resistance has been demonstrated”.

Q: `COC(=O)c1ccccc1S(=O)(=O)NC(=O)Nc1nc(C)nc(OC)n1` [metsulfuron methyl, methyl 2-[[[[(4-methoxy-6-methyl-1,3,5-triazin-2-yl)amino]carbonyl]amino]sulfonyl]benzoate] was tested. Which “Pre-emergence and/or post-emergence resistance to herbicide” value [1] did it give?
A: The value was “Resistance has been demonstrated”.

Q: Which “Pre-emergence and/or post-emergence resistance to herbicide” value [1] does the source give for `COc1nc(C)nc(NC(=O)NS(=O)(=O)c2ccccc2OCCCl)n1` [triasulfuron, 3-(6-methoxy-4-methyl-1,3,5-triazin-2-yl)-1-[2-(2-chloroethoxy)-phenylsulfonyl]-urea] here?
A: The value was “Resistance has been demonstrated”.
